Results as given in patent US20230085307A1, “PYRIDAZINONE COMPOUND AND HERBICIDE” (NISSAN CHEMICAL CORPORATION, priority 2019, published 2023).

Legend:
[1] = system: oval-leafed pondweed; assay: Test Example 2: herbicidal activity, application during weed generation under submerged conditions (Table 17, symbol C); type: in vivo, oval-leafed pondweed (Monochoria vaginalis); conditions: AAH 320 g/ha; application during weed generation, submerged conditions
Description: (§1) [Test Example 2] Herbicidal Activity Test by Application during Weed Generation under Submerged Conditions After alluvial soil was placed into 1/10000 are of Wagner pot, water was poured and mixed to form a submerged condition having a water depth of 4 cm. Seeds of late watergrass, Japanese bulrush, and oval-leafed pondweed were sowed in a mixed manner in the aforementioned pot, and the pot was placed in a greenhouse at 25° C. to 30° C. for growth of the plants. When late watergrass, Japanese bulrush, and oval-leafed pondweed were grown to one leaf stage to two leaf stage, the emulsion agent of the compound of the present invention prepared according to Formulation Example 2 was diluted with water so as to achieve a predetermined herbicide amount, and the diluted emulsion agent was applied to the surface of the water. Three weeks after the herbicide application, the effect of the herbicide on each plant was evaluated according to the criteria of Test Example 1.

[2] = system: barnyard grass; assay: Test Example 3: herbicidal effect by foliage application, Wagner pot (Table 18, symbol H); type: in vivo, barnyard grass (Echinochloa crus-galli); conditions: 320 g/ha
Method in brief: (§2)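 Plants were sown in alluvial soil held under 0.1–0.5 cm standing water and grown 14 days in a greenhouse at 25–30 °C. An emulsifiable formulation, water-diluted to the set dose, was then sprayed onto the foliage, and effects were scored three weeks later using previously defined criteria.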

[3] = system: rice flat sedge; assay: Test Example 3: herbicidal effect by foliage application, Wagner pot (Table 18, symbol E); type: in vivo, rice flat sedge (Cyperus iria); conditions: 320 g/ha
Method in brief: as §2

[4] = system: Chinese sprangletop; assay: Test Example 3: herbicidal effect by foliage application, Wagner pot (Table 18, symbol D); type: in vivo, chinese sprangletop (Leptochloa chinensis); conditions: 320 g/ha
Method in brief: as §2

[5] = system: Japanese bulrush; assay: Test Example 2: herbicidal activity, application during weed generation under submerged conditions (Table 17, symbol B); type: in vivo, Japanese bulrush (Schoenoplectus juncoides); conditions: AAH 320 g/ha; application during weed generation, submerged conditions
Description: as §1

[6] = system: late watergrass; assay: Test Example 2: herbicidal activity, application during weed generation under submerged conditions (Table 17, symbol A); type: in vivo, late watergrass (Echinochloa oryzicola); conditions: AAH 320 g/ha; application during weed generation, submerged conditions
Description: as §1

[7] = system: persian speedwell; assay: Test Example 5: herbicidal effect by foliage application, plastic box (Table 20, symbol R); type: in vivo, Persian speedwell (Veronica persica); conditions: foliage application, 320 g/ha, 3 weeks after application
Method in brief: (§3)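 Plants sown in sterilized diluvial soil and grown 14 days in a greenhouse at 25° C to 30° C, then sprayed on the foliage with the compound's emulsion diluted in water to a predetermined herbicide amount. Injury to weeds and crops scored three weeks after application on a visual rating scale.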

[8] = system: velvetleaf; assay: Test Example 5: herbicidal effect by foliage application, plastic box (Table 20, symbol M); type: in vivo, velvetleaf (Abutilon theophrasti); conditions: foliage application, 320 g/ha, 3 weeks after application
Method in brief: as §3

[9] = system: redroot pigweed; assay: Test Example 4: herbicidal effect by soil treatment (Table 19, symbol N); type: in vivo, redroot pigweed (Amaranthus retroflexus); conditions: AAH 320 g/ha
Method in brief: (§4)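 Seeds were sown in sterilized diluvial soil and covered with about 1.5 cm of soil. An emulsion formulation diluted with water to a predetermined herbicide amount was sprayed evenly onto the soil surface. Plants grew in a greenhouse at 25° C. to 30° C., and the effect was scored three weeks after application using criteria from an earlier test.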

[10] = system: green foxtail; assay: Test Example 4: herbicidal effect by soil treatment (Table 19, symbol G); type: in vivo, green foxtail (Setaria viridis); conditions: AAH 320 g/ha
Method in brief: as §4

[11] = system: Japanese bulrush; assay: Test Example 1: herbicidal activity, application before weed generation under submerged conditions (Table 16, symbol B); type: in vivo, Japanese bulrush (Schoenoplectus juncoides); conditions: 320 g/ha applied herbicide
Method in brief: (§5)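 Submerged Wagner pots (alluvial soil, 4 cm water) sown with weed seeds and planted with 2.5-leaf rice seedlings; emulsifiable concentrate diluted in water applied to water surface on sowing day. Held in greenhouse at 25-30 °C; injury scored 0-5 by herbicidal rate after three weeks.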

[12] = system: wild oat; assay: Test Example 5: herbicidal effect by foliage application, plastic box (Table 20, symbol I); type: in vivo, wild oat (Avena fatua); conditions: foliage application, 320 g/ha, 3 weeks after application
Method in brief: as §3

[13] = system: wild oat; assay: Test Example 4: herbicidal effect by soil treatment (Table 19, symbol I); type: in vivo, wild oat (Avena fatua); conditions: AAH 320 g/ha
Method in brief: as §4

[14] = system: blackgrass; assay: Test Example 4: herbicidal effect by soil treatment (Table 19, symbol J); type: in vivo, blackgrass (Alopecurus myosuroides); conditions: AAH 320 g/ha
Method in brief: as §4

[15] = system: oval-leafed pondweed; assay: Test Example 1: herbicidal activity, application before weed generation under submerged conditions (Table 16, symbol C); type: in vivo, oval-leafed pondweed (Monochoria vaginalis); conditions: 320 g/ha applied herbicide
Method in brief: as §5

[16] = system: barnyard grass; assay: Test Example 4: herbicidal effect by soil treatment (Table 19, symbol H); type: in vivo, barnyard grass (Echinochloa crus-galli); conditions: AAH 320 g/ha
Method in brief: as §4

[17] = system: lambsquarters; assay: Test Example 4: herbicidal effect by soil treatment (Table 19, symbol O); type: in vivo, lambsquarters (Chenopodium album); conditions: AAH 320 g/ha
Method in brief: as §4

[18] = system: blackgrass; assay: Test Example 5: herbicidal effect by foliage application, plastic box (Table 20, symbol J); type: in vivo, blackgrass (Alopecurus myosuroides); conditions: foliage application, 320 g/ha, 3 weeks after application
Method in brief: as §3

[19] = system: Italian ryegrass; assay: Test Example 4: herbicidal effect by soil treatment (Table 19, symbol K); type: in vivo, Italian ryegrass (Lolium multiflorum); conditions: AAH 320 g/ha
Method in brief: as §4

[20] = system: southern crabgrass; assay: Test Example 4: herbicidal effect by soil treatment (Table 19, symbol F); type: in vivo, southern crabgrass (Digitaria ciliaris); conditions: AAH 320 g/ha
Method in brief: as §4

[21] = system: velvetleaf; assay: Test Example 4: herbicidal effect by soil treatment (Table 19, symbol M); type: in vivo, velvetleaf (Abutilon theophrasti); conditions: AAH 320 g/ha
Method in brief: as §4

[22] = system: chickweed; assay: Test Example 4: herbicidal effect by soil treatment (Table 19, symbol P); type: in vivo, common chickweed (Stellaria media); conditions: AAH 320 g/ha
Method in brief: as §4

[23] = system: persian speedwell; assay: Test Example 4: herbicidal effect by soil treatment (Table 19, symbol R); type: in vivo, Persian speedwell (Veronica persica); conditions: AAH 320 g/ha
Method in brief: as §4

[24] = system: barnyard grass; assay: Test Example 5: herbicidal effect by foliage application, plastic box (Table 20, symbol H); type: in vivo, barnyard grass (Echinochloa crus-galli); conditions: foliage application, 320 g/ha, 3 weeks after application
Method in brief: as §3

[25] = system: Italian ryegrass; assay: Test Example 5: herbicidal effect by foliage application, plastic box (Table 20, symbol K); type: in vivo, Italian ryegrass (Lolium multiflorum); conditions: foliage application, 320 g/ha, 3 weeks after application
Method in brief: as §3

[26] = system: lambsquarters; assay: Test Example 5: herbicidal effect by foliage application, plastic box (Table 20, symbol O); type: in vivo, lambsquarters (Chenopodium album); conditions: foliage application, 320 g/ha, 3 weeks after application
Method in brief: as §3

[27] = system: southern crabgrass; assay: Test Example 5: herbicidal effect by foliage application, plastic box (Table 20, symbol F); type: in vivo, southern crabgrass (Digitaria ciliaris); conditions: foliage application, 320 g/ha, 3 weeks after application
Method in brief: as §3

[28] = system: green foxtail; assay: Test Example 5: herbicidal effect by foliage application, plastic box (Table 20, symbol G); type: in vivo, green foxtail (Setaria viridis); conditions: foliage application, 320 g/ha, 3 weeks after application
Method in brief: as §3

[29] = system: late watergrass; assay: Test Example 1: herbicidal activity, application before weed generation under submerged conditions (Table 16, symbol A); type: in vivo, late watergrass (Echinochloa oryzicola); conditions: 320 g/ha applied herbicide
Method in brief: as §5

COC(=O)COc1ccc(-c2sc3ccccc3c2-c2c(O)c(C)nn(C)c2=O)cc1 [1-232]
herbicidal effect rating, C: oval-leafed pondweed [1]: 0 (Herbicidal rate of 5% or less (almost no effect))
herbicidal effect on H (barnyard grass), rating 0-5 [2]: 3 (Herbicidal rate of 40% or more and less than 70%)
herbicidal effect on E (rice flat sedge), rating 0-5 [3]: 3 (Herbicidal rate of 40% or more and less than 70%)
herbicidal effect on D (Chinese sprangletop), rating 0-5 [4]: 3 (Herbicidal rate of 40% or more and less than 70%)
herbicidal effect rating, B: Japanese bulrush [5]: 0 (Herbicidal rate of 5% or less (almost no effect))
herbicidal effect rating, A: late watergrass [6]: 3 (Herbicidal rate of 40% or more and less than 70%)

C=CCOCc1ccc(-c2sc3ccccc3c2-c2c(O)c(C)nn(C)c2=O)cc1 [1-241]
effect on persian speedwell (R) [7]: 5 (Herbicidal rate of 90% or more (almost completely withered))
effect on velvetleaf (M) [8]: 5 (Herbicidal rate of 90% or more (almost completely withered))
N: redroot pigweed, herbicidal effect rating [9]: 5 (Herbicidal rate of 90% or more (almost completely withered))
G: green foxtail, herbicidal effect rating [10]: 3 (Herbicidal rate of 40% or more and less than 70%)
Herbicidal effect on B: Japanese bulrush (grade 0-5) [11]: 3 (Herbicidal rate of 40% or more and less than 70%)
effect on wild oat (I) [12]: 0 (Herbicidal rate of 5% or less (almost no effect))
I: wild oat, herbicidal effect rating [13]: 0 (Herbicidal rate of 5% or less (almost no effect))
herbicidal effect on H (barnyard grass), rating 0-5 [2]: 5 (Herbicidal rate of 90% or more (almost completely withered))
herbicidal effect on E (rice flat sedge), rating 0-5 [3]: 4 (Herbicidal rate of 70% or more and less than 90%)
J: blackgrass, herbicidal effect rating [14]: 2 (Herbicidal rate of 20% or more and less than 40%)
herbicidal effect on D (Chinese sprangletop), rating 0-5 [4]: 3 (Herbicidal rate of 40% or more and less than 70%)
Herbicidal effect on C: oval-leafed pondweed (grade 0-5) [15]: 2 (Herbicidal rate of 20% or more and less than 40%)
H: barnyard grass, herbicidal effect rating [16]: 3 (Herbicidal rate of 40% or more and less than 70%)
O: lambsquarters, herbicidal effect rating [17]: 4 (Herbicidal rate of 70% or more and less than 90%)
effect on blackgrass (J) [18]: 3 (Herbicidal rate of 40% or more and less than 70%)
K: Italian ryegrass, herbicidal effect rating [19]: 3 (Herbicidal rate of 40% or more and less than 70%)
F: southern crabgrass, herbicidal effect rating [20]: 1 (Herbicidal rate of 5% or more and less than 20%)
herbicidal effect rating, B: Japanese bulrush [5]: 3 (Herbicidal rate of 40% or more and less than 70%)
M: velvetleaf, herbicidal effect rating [21]: 0 (Herbicidal rate of 5% or less (almost no effect))
herbicidal effect rating, A: late watergrass [6]: 3 (Herbicidal rate of 40% or more and less than 70%)
P: chickweed, herbicidal effect rating [22]: 3 (Herbicidal rate of 40% or more and less than 70%)
R: persian speedwell, herbicidal effect rating [23]: 5 (Herbicidal rate of 90% or more (almost completely withered))
effect on barnyard grass (H) [24]: 4 (Herbicidal rate of 70% or more and less than 90%)
effect on Italian ryegrass (K) [25]: 5 (Herbicidal rate of 90% or more (almost completely withered))
effect on lambsquarters (O) [26]: 4 (Herbicidal rate of 70% or more and less than 90%)
effect on southern crabgrass (F) [27]: 2 (Herbicidal rate of 20% or more and less than 40%)
effect on green foxtail (G) [28]: 5 (Herbicidal rate of 90% or more (almost completely withered))
Herbicidal effect on A: late watergrass (grade 0-5) [29]: 0 (Herbicidal rate of 5% or less (almost no effect))
